# Test results from patent US8038984B2, “Membrane-permeant peptide complexes for treatment of sepsis” (Washington University, priority 1998, dated 2011).
# Numbered stars: 1 amine (or outer) side, 2 acyl side, 3 side chain; on linkers, the order of the positions; unused ones are H or OH. Square brackets hold non-standard residues; d marks the D form. εLys = N[C@@H](CCCCN[*:1])C(=O)[*:2]; dOrn = NCCC[C@@H](N)C(=O)O; βAla = NCCC(=O)O
# Assays:
# [1] = tested on: human lymphocytes; experiment: E. coli bacterial-induced lymphocyte apoptosis, staining for active caspase 3; type: cell-based
# Method: Thymocytes and splenocytes were obtained from CLP and sham-treated mice ˜20 hours postoperatively. The APO-BRDU™ kit (Phoenix Flow Systems, San Diego, Calif.) was employed for flow cytometric quantitation of TUNEL. Antibodies to active caspase 3 (Cell Signaling—Catalog #9664) were used in the flow cytometry and/or TUNEL assay.
# Lymphocytes were harvested from peripheral blood obtained from 6 healthy volunteers using a ficol gradient separation technique. Approximately 1×10^6 lymphocytes were plated in individual transwell containers. E. coli bacteria (strain ATCC 25922), that had been grown overnight in trypticase soy broth were added to a separate compartment of the transwell chamber separated from direct contact with the lymphocytes by a 0.02 micron filter (25 μl of bacteria at 3×10^9 CFUs added to 1 ml volume.
# [2] = tested on: human Jurkat leukemia cells; experiment: Cell accumulation (uptake) of Tc-99m-Tat-peptide complexes in Jurkat cells; type: cell-based; details: Jurkat cells
# Method: Control solution for cell uptake experiments was a modified Earle's balanced salt solution (MEBSS) containing (mM): 145 Na^+, 5.4 K^+, 1.2 Ca^2+, 0.8 Mg^2+, 152 Cl^−, 0.8 H2PO4^−, 0.8 SO4^2−, 5.6 dextrose, 4.0 HEPES, and 1% bovine calf serum (vol/vol), pH 7.4±0.05. A 130 mM K^+/20 mM Cl^− solution was made by equimolar substitution of potassium methanesulfonate for NaCl as described by Piwnica-Worms et al. (J. Gen. Physiol., 81:731-748, 1983).
# (§1) Characterization of accumulation of Tc-99m-peptide complex was also performed for nonadherent cell lines such as human Jurkat leukemia cells with minor modifications of methods described in the literature (Bosch et al., Leukemia, 11: 1131-1137, 1997). Transport experiments were performed in siliconized microfuge tubes and initiated by addition of 732.5 μl of cells at 2-3×10^6 cells/ml to 10 μl of buffer containing Tc-99m-peptide complex and 7.5 μl of vehicle alone or of any added drug in vehicle at 100-fold the desired concentration. The tubes were incubated in a 37° C. water bath with occasional mixing. The reaction was terminated by centrifuging 250 μl aliquots from the reaction for 10 seconds through 800 μl of a 75:25 mixture of silicon oil, density=1.050 (Aldrich) and mineral oil, density=0.875 (Acros). An aliquot of the aqueous phase was obtained to normalize extracellular concentration of the complex to cell-associated activity, then the oil and aqueous phases were aspirated and the cell pellet extracted in 0.5 ml of 1% SDS, 10 mM sodium borate. For tracer washout experiments, cells were first incubated to plateau uptake (10 min) in loading buffer (37° C.), collected by rapid centrifugation and the pellet resuspended in 50 ml MEBSS (4° C.) to clear extracellular tracer. Following another rapid spin, the cell pellet was resuspended in isotope-free MEBSS (37° C.) and the experiment terminated as above after various times in warm washout buffer. Radioactivity of the cell pellet, buffers and stocks were determined on a gamma counter (Cobra II, 130-165 keV window) and cell protein was determined by the BCA assay (Pierce). Transport data are reported as fmol Tc-complex (mg protein)^−1 (nM0)^− as previously described, with (nM0)^−1 representing total concentration of peptide conjugate in the extracellular buffer (Piwnica-Worms et al., Circulation, 82: 1826-1838, 1990).
# Kinetic experiments of [^99mTc]D-Tat-peptide complexes were performed in Jurkat leukemia cells suspended in MEBSS with minor modification of the methods described in Example 6. Transport experiments were performed in siliconized microfuge tubes and initiated by addition of 732.5 μl of cells at 2-3×10^6 cells/ml to 10 μl of MEBSS containing [^99mTc]D-Tat-peptide complex and 7.5 μl of vehicle alone or of any added drug in vehicle at 100 fold the desired concentration. Unless stated otherwise, [^99mTc]D-Tat-peptide complex was added to MEBSS accompanied by a molar excess of unlabeled D-Tat-peptide as obtained directly from the labeling procedure. The final total peptide concentration was 7 nM to 8 μM (1-2 μCi/ml). The tube were incubated at 37° C. and the reaction terminated as previously described. For peptide washout experiments, cells were first incubated to plateau uptake (20 minutes) in MEBSS loading buffer at 37° C., collected by rapid centrifugation and the pellet resuspended in 50 ml of isotope-free MEBSS at 4° C. to clear extracellular tracer. Following another rapid spin, the cell pellet was resuspended in isotope-free MEBSS at 37° C. for various times and the reaction terminated as described previously. Protein assays and determination of gamma activity were as described in Example 6. Absolute concentration of total [Tc]Tat-peptide complex in solution was determined from the specific activity of Tc, based on equations of Mo/Tc generator equilibrium (Lamson et al., J. Nucl. Med., 16:639-641, 1975). […]
# [3] = tested on: human KB-3-1 and KB-8-5 epidermoid carcinoma cells; experiment: Fluorescence (confocal) microscopy of subcellular distribution; type: cell-based; details: 0.5 μM extracellular concentration, KB-3-1 and KB-8-5 cells
# Method: Subsequently, cells on covers lips were fixed in 4% (v/v) formaldehyde in PBS at room temperature and then rinsed 3 times with PBS (1 min each). Cells were then stained and mounted with anti-fading mounting medium containing propidium iodide (1 μg/ml) following the recommended procedures of the manufacturer (Vectashield). The distribution of the fluorescence was analyzed on a Zeiss confocal laser fluorescence microscope equipped with a mercury lamp, oil immersion objectives and a CCD interfaced to a PC. Propidium iodide distribution was interrogated using 340-380 nm excitation and 430 nm emission, while fluorescein distribution was interrogated using 450-490 nm excitation and 520 nm emission.
# To localize the subcellular distribution of the Tat-peptide conjugate, uptake experiments were performed with the fluorescein derivatized conjugate using human KB-3-1 and KB-8-5 epidermoid carcinoma cells.
# [4] = tested on: human Jurkat leukemia cells; experiment: Washout of Tc-99m-Tat-peptide complexes from preloaded Jurkat cells; type: cell-based; details: residual activity remaining within the cell 30 minutes after a wash in isotope-free buffer
# Method: as §1
# Kinetic experiments of [^99mTc]D-Tat-peptide complexes were performed in Jurkat leukemia cells suspended in MEBSS with minor modification of the methods described in Example 6. Transport experiments were performed in siliconized microfuge tubes and initiated by addition of 732.5 μl of cells at 2-3×10^6 cells/ml to 10 μl of MEBSS containing [^99mTc]D-Tat-peptide complex and 7.5 μl of vehicle alone or of any added drug in vehicle at 100 fold the desired concentration. Unless stated otherwise, [^99mTc]D-Tat-peptide complex was added to MEBSS accompanied by a molar excess of unlabeled D-Tat-peptide as obtained directly from the labeling procedure. The final total peptide concentration was 7 nM to 8 μM (1-2 μCi/ml). The tube were incubated at 37° C. and the reaction terminated as previously described. For peptide washout experiments, cells were first incubated to plateau uptake (20 minutes) in MEBSS loading buffer at 37° C., collected by rapid centrifugation and the pellet resuspended in 50 ml of isotope-free MEBSS at 4° C. to clear extracellular tracer. Following another rapid spin, the cell pellet was resuspended in isotope-free MEBSS at 37° C. for various times and the reaction terminated as described previously. Protein assays and determination of gamma activity were as described in Example 6. Absolute concentration of total [Tc]Tat-peptide complex in solution was determined from the specific activity of Tc, based on equations of Mo/Tc generator equilibrium (Lamson et al., J. Nucl. Med., 16:639-641, 1975). Transport data are reported as pmol of peptidei (mg protein)^−1 (μM0)^−1, wherein peptidei represents total peptide conjugate within the cells and (nM0)^−1 represents concentration of total peptide conjugate in the extracellular buffer.
# [5] = target: T1, caspase-3 (Homo sapiens, UniProt P42574); experiment: Cleavage of the caspase-3 cleavable linker in situ in C6-ceramide-treated Jurkat cells; type: cell-based; details: 5 μM C6-ceramide, 1 μM peptide, RP-HPLC at 440 nm of lysates
# T1 construct: Human Jurkat leukemia cells express pro-caspase-3; endogenous in cells; host or cells: Jurkat (human T-cell leukemia)
# T1 sequence (P42574 29-175 limits assumed): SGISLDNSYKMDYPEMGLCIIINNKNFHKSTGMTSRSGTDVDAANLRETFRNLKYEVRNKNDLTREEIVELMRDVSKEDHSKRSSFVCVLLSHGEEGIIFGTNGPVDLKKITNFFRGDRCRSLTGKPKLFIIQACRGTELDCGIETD
# T1 sequence (P42574 176-277 limits assumed): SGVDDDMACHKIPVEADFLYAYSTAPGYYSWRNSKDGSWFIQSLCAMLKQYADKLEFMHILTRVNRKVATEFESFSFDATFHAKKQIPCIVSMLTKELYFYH
# Method: Human Jurkat leukemia cells express pro-caspase-3. Apoptosis can be induced by pre-incubation of Jurkat cells for 5 hr in medium containing C6-ceramide, a permeant phospholipid known to activate the cell death program (Herr, et al., EMBO J 16:6200-6208, 1997; Jayadev S, et al., J. Biol Chem 270:2047-2052, 1995). After pre-incubation of Jurkat cells in MEBSS buffer at […] in the absence (untreated) or presence of 5 μM C6-ceramide, 1 μM of the caspase-3 cleavable fluorescein tagged Tat peptide of Example 8 was added to the MEBSS buffer for 30 minutes. Untreated and apoptotic cells were then spun through oil (see Example 6) to clear extracellular spaces of Tat peptide, and the intact cells in the pellet were allowed to incubate for 5 minutes at 37° C. The oil was quickly suctioned off, the reaction terminated with cell lysis buffer (1% SDS, 10 mM sodium borate), and the cell extract centrifuged (500×g for 10 min) to pellet debris and precipitates. The supernatant was removed, lyophilized overnight, and resuspended in 500 μl of water. […] In C6-ceramide-treated cells, however, no such species was observable (FIG. 7).
# The above experiment was repeated using the Tc-99m-Tat peptide of Example 8. […] Tc99-m and protein content were determined using published methods (Bosch et al., Leukemia 11:1131-37, 1997).
# [6] = target: T2, recombinant human active caspase-3 (Homo sapiens, UniProt P42574); experiment: Cleavage of the caspase-3 cleavable linker in vitro; type: biochemical; details: 6 hrs incubation with active caspase-3, TLC
# T2 construct: recombinant human active caspase-3
# T2 sequence (P42574 29-175 limits assumed): T1 sequence (P42574 29-175 limits assumed)
# T2 sequence (P42574 176-277 limits assumed): T1 sequence (P42574 176-277 limits assumed)
# Method: In small reaction vials, Tat peptide chelate as the fluorescein tagged conjugate of Example 8 was incubated with and without recombinant human active caspase-3 in commercially available reaction buffer (caspase buffer, Invitrogen). In vial 1 was peptide conjugate in buffer without caspase-3; in vial 2 was peptide conjugate with active caspase-3; and in vial 3 was stock peptide conjugate. After 6 hrs of incubation to assure completion of the reaction, the reaction mixtures were spotted at the origin of silica gel TLC plates, developed in 15% TFA, and analyzed under an UV lamp. […] This represents direct evidence for successful synthesis of a caspase-3-cleavable Tat peptide imaging conjugate.
substance,measurement,setting,value
"(d)-Ac-RKKRR-Orn-RRR-β-A-(l)-SNRELVVDFLSDKLSQKGDS-COOH (Ac-[dR][dK][dK][dR][dR][dOrn][dR][dR][dR][βAla]SNRELVVDFLSDKLSQKGDS-OH; SMILES CC(=O)N[C@H](CCCNC(=N)N)C(=O)N[C@H](CCCCN)C(=O)N[C@H](CCCCN)C(=O)N[C@H](CCCNC(=N)N)C(=O)N[C@H](CCCNC(=N)N)C(=O)N[C@H](CCCN)C(=O)N[C@H](CCCNC(=N)N)C(=O)N[C@H](CCCNC(=N)N)C(=O)N[C@H](CCCNC(=N)N)C(=O)NCCC(=O)N[C@@H](CO)C(=O)N[C@@H](CC(N)=O)C(=O)N[C@@H](CCCNC(=N)N)C(=O)N[C@@H](CCC(=O)O)C(=O)N[C@@H](CC(C)C)C(=O)N[C@H](C(=O)N[C@H](C(=O)N[C@@H](CC(=O)O)C(=O)N[C@@H](Cc1ccccc1)C(=O)N[C@@H](CC(C)C)C(=O)N[C@@H](CO)C(=O)N[C@@H](CC(=O)O)C(=O)N[C@@H](CCCCN)C(=O)N[C@@H](CC(C)C)C(=O)N[C@@H](CO)C(=O)N[C@@H](CCC(N)=O)C(=O)N[C@@H](CCCCN)C(=O)NCC(=O)N[C@@H](CC(=O)O)C(=O)N[C@@H](CO)C(=O)O)C(C)C)C(C)C) [TAT-BH4(D)2, reference compound]",bacterial-induced apoptosis,"[1]; 1 μM, human lymphocytes, live E. coli ~5 hours",did not prevent apoptosis
"Bcl-xL: free unconjugated Bcl-xL, anti-apoptotic Bcl-2 family protein",CD3 T cell apoptosis by staining for active caspase 3,[1]; human lymphocytes treated with live E. coli for ~5 hours,a similar decrease was not seen
acetyl-GRKKRRORRR-AHA-εKGC-amide-fluorescein-maleimide trifluoroacetate [Example 3],20 min Uptake,"[2]; [99mTc] complexes, 37° C., 20 min",42.74 pmol (mg protein)^−1 (μM0)^−1
same,U/W Ratio,[2]; uptake/washout ratio,1.8
same,subcellular distribution,[3],rapid cytoplasmic and nuclear accumulation
same,30 min Washout,[4],24.32 pmol (mg protein)^−1 (μM0)^−1
fluorescein tagged conjugate of Example 8: caspase-3 cleavable Tat peptide conjugate labeled at the C-terminal thiol of the peptide chelator with fluorescein maleimide (Ac-GRKKRRQRRRGDEVDG[εLys]GC(fluorescein maleimide)-NH2; not fully specified; printed as acetyl-GRKKRRQRRR-GDEVDG-εKGC-amide; also: conjugate),cleavage in living cells upon activation of caspase-3,[5]; listed as caspase-3 cleavable fluorescein tagged Tat peptide of Example 8,rapid cleavage
same,cleavage in living cells upon activation of caspase-3,[5]; listed as fluorescein tagged Tat peptide,absence of the intact Tat peptide
same,cleavage by caspase-3,[6],cleavage of the Tat peptide conjugate at the D-G cleavage site
